pKi: −log10 of the molar value.
target: Human immunodeficiency virus type 1 protease (Human immunodeficiency virus 1, UniProt Q72874); test: Compound was tested for the inhibitory activity against HIV-protease

Row | Compound | pKi
1 | O=C1N(Cc2ccccc2)C[C@H](O)[C@@H](Cc2ccccc2)N1Cc1ccccc1 | 4.96
2 | O=C1[C@@H](Cc2ccccc2)C[C@@H](O)[C@@H](Cc2ccccc2)N1Cc1ccccc1 | 5.03
3 | O=C1N(Cc2ccccc2)C[C@@H](O)[C@@H](Cc2ccccc2)N1Cc1ccccc1 | 8.60
4 | O=C1N[C@H](CCc2ccccc2)[C@@H](O)[C@@H](Cc2ccccc2)N1Cc1ccccc1 | 7.18

Reference: ChEMBL document CHEMBL1129849, “Synthesis and evaluation of delta lactams as nonpeptide HIV-protease inhibitors” (Bioorg Med Chem Lett, 1997)
